For 16 molecules, IC50 and EC50 results are on record in patent US11339185B2, “Cyclic dinucleotides as anticancer agents” (Bristol-Myers Squibb Company, priority 2018, dated 2022).

Test [1] has as its target T1, STING WT: His-TVMV-S-hSTING(155-341)-H232R (Homo sapiens, UniProt Q86WV6, H232R).
T1 construct: STING WT: His-TVMV-S-hSTING(155-341)-H232R
Put plainly: STING HTRF binding assay (time resolved FRET competition), STING WT. The settings on record: 20 nM His-tagged STING WT cytoplasmic domain, 200 nM fluorescein-labeled cGAMP analog probe, one hour; read-out: HTRF Binding Assays IC50 (μM) WT. The protocol:
(§1) A time resolved FRET-based competition binding assay was used to assess test article binding to STING WT and STING AQ. His-tagged STING cytoplasmic domain (WT or AQ) at a concentration of 20 nM was incubated with 2.5 nM Tb-labeled anti-His antibody, test compound, and fluorescein-labeled cGAMP analog probe (BioLog cat. no. C195) at a concentration of 200 nM (STING WT) or 40 nM (STING AQ) in PBS containing 0.005% Tween-20 and 0.1% BSA for one hour. Fluorescence at 495 nm and 520 nm was measured using an EnVision microplate reader to quantify FRET between Tb-labeled anti-His antibody and fluorescein-labeled probe. Background was defined as the signal obtained in the absence of STING protein, and background subtracted FRET ratios were normalized to the maximum signal obtained in the absence of test compound. These values were converted to a percent inhibition. Percent inhibition was determined for test compounds at 11 concentrations. The IC50, defined as the concentration of competing test compound needed to reduce specific binding of the probe by 50%, was calculated using the 4 parameter logistic equation to fit the data
(In general: Time-resolved FRET reads energy transfer from a long-lived donor to a nearby acceptor.)

Test [2] concerns THP1-Dual cells, IRF pathway (IRF3). Put plainly: STING THP1 Reporter Assay, IRF pathway (secreted Lucia luciferase, QUANTI-Luc). The class given is cell-based. The settings on record: 10% human plasma, luciferase readout, 100% activation = 100 μM cGAMP, read-out: THP1 Reporter Assays EC50 (μM) IRF3. An excerpt: (§2) THP1-Dual™ cells were derived from the human THP-1 monocyte cell line by stable integration of two inducible reporter constructs. To this end, THP1-Dual™ cells allow the simultaneous study of the NF-κB pathway, by monitoring the activity of SEAP, and the IRF pathway by assessing the activity of a secreted luciferase (Lucia). Both reporter proteins are readily measurable in the cell culture supernatant when using QUANTI-Blue™, a SEAP detection reagent, and QUANTI-Luc™, a luciferase detection reagent.
(§3) THP1-Dual™ cells induce the activation of NF-κB in response to STING agonists. They also trigger the IRF pathway upon stimulation with STING agonists, such as cGAMP. Here, the THP-1-Dual cells were used to assess STING binders for function on the cellular level.
(§4) Serial dilutions of compounds in DMSO were added to low volume 384 well plates at 100 nl/well using an ECHO acoustic dispenser (Labcyte, model 550) to achieve final starting concentration of 100 μM in cell suspension. THP-1 Dual™ STING reporter cells (Invivogen, Dual cells cat #THPD-nfis) were added to the plates with compounds at 15,000 cells in 10 μL per well in RPMI media (Gibco, cat #11875) containing 10% human plasma in a low volume 384-well black wall clear bottom tissue culture plate (Corning, cat #3542) for SEAP assay and low volume solid white plate (Corning, cat #3826) for luciferase assay. One column of the plate was reserved for treatment with cGAMP at 100 μM for 100% activation calculation and one column for no treatment (DMSO only) for baseline activation. Plates were then incubated in 37 OC incubator at 5% CO2 for 20 hours.
(§5) In the SEAP assay, 5 μl of 2× QuantiBlue (Invivogen, cat #Rep-qb2) is added to 384 well black plates seeded with THP1 cells and incubated at 37° C. for 2 hours. Plates were read on the Envision (Perkin Elmer) at 620 nm wavelength (OD620). In the luciferase assay, 5 μl of Quantiluc (Invivogen, Rep-qlc2) is added to white 384 well plates seeded with THP1 cells and read at 5 minutes on the Envision (Perkin Elmer) using a luminescence protocol (RLU). For both cell lines, 100% activation was determined by value (RLU) of THP-1 Dual STING cells stimulated with 100 μM cGAMP (Invivogen, cat #TLRL-NACGA23-5).
(Reporter assays use an easily measured gene product as a stand-in for the process of interest.)

For test [3], the system named is THP1-Dual cells, NF-κB pathway. Kind of test: STING THP1 Reporter Assay, NF-κB pathway (SEAP, QUANTI-Blue). The settings on record: 10% human plasma, SEAP readout (OD620), 100% activation = 100 μM cGAMP, read-out: THP1 Reporter Assays EC50 (μM) NFkB. The class given is cell-based.
Text: as §2, §3, §4, §5

Test [4] concerns the target T2, STING AQ: His-TVMV-S-hSTING(155-341)-G230A-R293Q (Homo sapiens, UniProt Q86WV6, G230A/H232R/R293Q).
T2 construct: STING AQ: His-TVMV-S-hSTING(155-341)-G230A-R293Q
Put plainly: STING HTRF binding assay (time resolved FRET competition), STING AQ. Particulars: 20 nM His-tagged STING AQ cytoplasmic domain, 40 nM fluorescein-labeled cGAMP analog probe, one hour; read-out: HTRF Binding Assays IC50 (μM) AQ. The protocol: as §1

Read-outs that look alike come from different tables or passages of the source.

T2 sequence (Q86WV6 with tags, fused parts or gaps G230A/H232R/R293Q): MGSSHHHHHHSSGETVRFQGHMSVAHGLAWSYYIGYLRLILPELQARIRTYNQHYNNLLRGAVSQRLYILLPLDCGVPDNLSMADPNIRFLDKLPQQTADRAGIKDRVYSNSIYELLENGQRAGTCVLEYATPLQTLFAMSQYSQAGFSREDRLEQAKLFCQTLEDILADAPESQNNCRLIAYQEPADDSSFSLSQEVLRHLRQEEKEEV
T1 sequence (Q86WV6 with tags, fused parts or gaps H232R): as the sequence (Q86WV6 with tags, fused parts or gaps G230A/H232R/R293Q) above, with A99G, Q162R counted along it

Regarding `Nc1ncnc2c1ncn2[C@@H]1O[C@@H]2COP(=O)(S)OC[C@@H]3[C@@H](COP(=O)(S)O[C@H]2[C@H]1F)C[C@H]3n1cnc2c(O)n3ccnc3nc21` (single isomer, unassigned) [Example 1-1], the figures for the IC50 in test [1] and in test [4] were 0.19 µM and 0.01 µM, respectively. Moreover, the EC50 (usually the concentration at which the effect is half-maximal) in test [2] (20 hours) was 41 µM; in test [3] (20 hours) it was 54.6 µM.
The corresponding values for `Nc1ncnc2c1ncn2[C@@H]1O[C@@H]2COP(=O)(S)OC[C@@H]3[C@@H](COP(=O)(S)O[C@H]2[C@H]1F)C[C@H]3n1cnc2c(O)n3ccnc3nc21` (single isomer, unassigned) [Example 1-4] are 0.01 µM, 0.002 µM, 0.39 µM and 1.21 µM.
For the molecule `Nc1ncnc2c1ncn2[C@@H]1O[C@@H]2COP(=O)(S)OC[C@@H]3[C@@H](COP(=O)(S)O[C@H]2[C@H]1F)C[C@H]3n1cnc2c(=O)[nH]cnc21` (single isomer, unassigned) [Example 22-1], the values for the IC50 in test [1] and in test [4] were 5.68 µM and 0.1 µM, respectively. For the same molecule, the EC50 in test [2] (20 hours) is over 100 µM; in test [3] (Homo sapiens, THP1-Dual, 20 h), over 100 µM.
On to `Nc1ncnc2c1ncn2[C@@H]1O[C@@H]2COP(=O)(S)OC[C@@H]3[C@@H](COP(=O)(S)O[C@H]2[C@H]1F)C[C@H]3n1cnc2c(=O)[nH]cnc21` (single isomer, unassigned) [Example 22-3], for which the IC50 (commonly the concentration needed to halve the response being measured) in test [1] worked out at 2.71 µM; in test [4] it was 0.04 µM. In addition, the EC50 in test [2] (20 hours) and in test [3] (20 hours) was over 100 µM in each case.
With `Nc1ncnc2c1ncn2[C@@H]1C[C@@H]2COP(=O)(S)O[C@@H]3[C@H](F)[C@@H](COP(=O)(S)OC[C@H]21)O[C@H]3n1cnc2c(=O)n3cc[nH]c3nc21` (single isomer, unassigned) [Example 6-1], the IC50 in test [1] turned out to be 6.31 µM; in test [4], 0.18 µM. For the same molecule, the EC50 in test [2] (20 hours) and in test [3] (20 hours) was over 100 µM throughout.
Turning to `Nc1ncnc2c1ncn2[C@@H]1C[C@@H]2COP(=O)(S)O[C@@H]3[C@H](F)[C@@H](COP(=O)(O)OC[C@H]21)O[C@H]3n1cnc2c(=O)n3ccnc3[nH]c21` (stereo partly drawn) [Example 7, 3-[(1S,6S,8R,9R,15R,17R,18R)-8-(6-amino-9H-purin-9-yl)-18-fluoro-3,12-dihydroxy-12-oxo-3-sulfanylidene-2,4,11,13,16-pentaoxa-3λ^5,12λ^5-diphosphatricyclo[13.2.1.0^6,9]octadecan-17-yl]-3H,5H,9H-imidazo[1,2-a]purin-9-one], the IC50 worked out at 0.12 µM in test [1] and 0.002 µM in test [4]. The EC50 in test [2] (Homo sapiens, THP1-Dual, 20 h) is 3.01 µM; in test [3] (Homo sapiens, THP1-Dual, 20 h), 11.5 µM.
Consider `NC(=O)c1cc([C@@H]2C[C@@H]3COP(=O)(S)O[C@H]4[C@@H](F)[C@H](n5cnc6c(N)ncnc65)O[C@@H]4COP(=O)(S)OC[C@H]32)ccn1` (single isomer, unassigned) [Example 10], for which the figures for the 50% inhibitory concentration (IC50) in test [1] and in test [4] were 40.9 µM and 2.3 µM, respectively. Besides, the EC50 in test [2] (20 hours) and in test [3] (20 hours) was over 100 µM in each case.
Regarding `Nc1ncnc2c1ncn2[C@@H]1C[C@@H]2COP(=O)(S)O[C@@H]3[C@H](F)[C@@H](COP(=O)(S)OC[C@H]21)O[C@H]3n1cnc2c(=O)n3cc[nH]c3nc21` (single isomer, unassigned) [Example 6-4], the figures for the IC50 in test [1] and in test [4] were 19.4 µM and 0.63 µM, respectively. Besides, the EC50 in test [2] (20 hours) and in test [3] (20 hours) was over 100 µM throughout.
On to `Nc1ncnc2c1ncn2[C@@H]1C[C@@H]2COP(=O)(S)O[C@H]3[C@@H](O)[C@H](n4cnc5c(=O)n6cc[nH]c6nc54)O[C@@H]3COP(=O)(S)OC[C@H]21` (single isomer, unassigned) [Example 5-4], for which the IC50 in test [1] was determined as 34.5 µM; in test [4] it was 0.11 µM. Besides, the EC50 in test [2] (20 hours) and in test [3] (20 hours) was over 100 µM throughout.
Regarding `NC(=O)c1cc([C@@H]2C[C@@H]3COP(=O)(O)O[C@H]4[C@@H](F)[C@H](n5cnc6c(N)ncnc65)O[C@@H]4COP(=O)(O)OC[C@H]32)ccn1` [Example 12, 4-[(1R,6S,8R,9S,15R,17R,18R)-17-(6-amino-9H-purin-9-yl)-18-fluoro-3,12-dihydroxy-3,12-dioxo-2,4,11,13,16-pentaoxa-3λ^5,12λ^5-diphosphatricyclo[13.3.0.0^6,9]octadecan-8-yl]pyridine-2-carboxamide], the results for the IC50 in test [1] and in test [4] were 31.2 µM and 0.35 µM, respectively. Further, the EC50 in test [2] (Homo sapiens, THP1-Dual, 20 h) was over 100 µM; in test [3] (Homo sapiens, THP1-Dual, 20 h), over 100 µM.
Turning to `Nc1ncnc2c1ncn2[C@@H]1C[C@@H]2COP(=O)(S)O[C@H]3[C@@H](O)[C@H](n4cnc5c(=O)n6cc[nH]c6nc54)O[C@@H]3COP(=O)(S)OC[C@H]21` (single isomer, unassigned) [Example 5-3], the half-inhibitory concentration (IC50) is over 100 µM in test [1] and 5.73 µM in test [4]. The EC50 in test [2] (20 hours) and in test [3] (20 hours) was over 100 µM throughout.
As for `Nc1ncnc2c1ncn2[C@@H]1O[C@@H]2COP(=O)(S)OC[C@@H]3[C@@H](COP(=O)(S)O[C@H]2[C@H]1F)C[C@H]3n1cnc2c(O)n3ccnc3nc21` (single isomer, unassigned) [Example 1-3], the IC50 in test [1] was found to be 0.84 µM; in test [4] it was 0.02 µM. Besides, the EC50 in test [2] (20 hours) and in test [3] (20 hours) was over 100 µM each time.
As to `NC(=O)c1cc([C@@H]2C[C@@H]3COP(=O)(S)O[C@H]4[C@@H](F)[C@H](n5cnc6c(N)ncnc65)O[C@@H]4COP(=O)(O)OC[C@H]32)ccn1` (single isomer, unassigned) [Example 13], the IC50 turned out to be 4.78 µM in test [1] and 0.1 µM in test [4]. The EC50 in test [2] (Homo sapiens, THP1-Dual, 20 h) came to 54.6 µM; in test [3] (Homo sapiens, THP1-Dual, 20 h) it was 90 µM.
With `O=P1(S)OC[C@@H]2[C@@H](COP(=O)(S)O[C@H]3[C@@H](F)[C@H](n4cnc5c4ncn4ccnc54)O[C@@H]3CO1)C[C@H]2n1cnc2c(Cl)ncnc21` (single isomer, unassigned) [Example 18-2], the IC50 was over 100 µM in test [1] and 35.7 µM in test [4]. In addition, the EC50 in test [2] (20 hours) and in test [3] (20 hours) was over 100 µM each time.
`NC(=O)c1cc([C@@H]2C[C@@H]3COP(=O)(S)OC[C@@H]4[C@@H](COP(=O)(S)OC[C@H]32)C[C@H]4n2cnc3c(N)ncnc32)ccn1` (single isomer, unassigned) [Example 15-2]: the IC50 in test [1] was over 100 µM; in test [4], 73.5 µM. Further, the EC50 in test [2] (20 hours) is over 100 µM.
In the case of `Nc1ncnc2c1ncn2[C@@H]1O[C@@H]2COP(=O)(S)OC[C@@H]3[C@@H](COP(=O)(S)O[C@H]2[C@H]1F)C[C@H]3n1cnc2c(=O)[nH]cnc21` (single isomer, unassigned) [Example 22-2], the EC50 in test [2] (20 hours) and in test [3] (20 hours) was over 100 µM throughout. In test [4], the IC50 was determined as 0.02 µM.
